# Calls of active or inactive are those of the source. The calls are words filed in the database; no cut-off is given here.
# Assays:
# ASPC1 = test: Antiproliferative activity against human ASPC1 cells harboring KRAS G12D mutant assessed as reduction in cell growth incubated for 72 hrs by MTT assay; format: functional, cell-based; details: ASPC1, 72 h
# [1] = molecular target: Epidermal growth factor receptor (Homo sapiens, UniProt P00533, L858R/T790M); test: Inhibition of N-terminal GST-tagged human recombinant EGFR T790M/L858R mutant (695 to end residues) expressed in baculovirus-infected Sf9 cells using poly (4:1 Glu,Tyr) peptide as substrate incubated for 60 mins in presence of ATP by ADP-Glo kinase assay
# Sequence of Epidermal growth factor receptor (Homo sapiens, UniProt P00533, L858R/T790M) (P00533 25-1210 T790M/L858R limits assumed): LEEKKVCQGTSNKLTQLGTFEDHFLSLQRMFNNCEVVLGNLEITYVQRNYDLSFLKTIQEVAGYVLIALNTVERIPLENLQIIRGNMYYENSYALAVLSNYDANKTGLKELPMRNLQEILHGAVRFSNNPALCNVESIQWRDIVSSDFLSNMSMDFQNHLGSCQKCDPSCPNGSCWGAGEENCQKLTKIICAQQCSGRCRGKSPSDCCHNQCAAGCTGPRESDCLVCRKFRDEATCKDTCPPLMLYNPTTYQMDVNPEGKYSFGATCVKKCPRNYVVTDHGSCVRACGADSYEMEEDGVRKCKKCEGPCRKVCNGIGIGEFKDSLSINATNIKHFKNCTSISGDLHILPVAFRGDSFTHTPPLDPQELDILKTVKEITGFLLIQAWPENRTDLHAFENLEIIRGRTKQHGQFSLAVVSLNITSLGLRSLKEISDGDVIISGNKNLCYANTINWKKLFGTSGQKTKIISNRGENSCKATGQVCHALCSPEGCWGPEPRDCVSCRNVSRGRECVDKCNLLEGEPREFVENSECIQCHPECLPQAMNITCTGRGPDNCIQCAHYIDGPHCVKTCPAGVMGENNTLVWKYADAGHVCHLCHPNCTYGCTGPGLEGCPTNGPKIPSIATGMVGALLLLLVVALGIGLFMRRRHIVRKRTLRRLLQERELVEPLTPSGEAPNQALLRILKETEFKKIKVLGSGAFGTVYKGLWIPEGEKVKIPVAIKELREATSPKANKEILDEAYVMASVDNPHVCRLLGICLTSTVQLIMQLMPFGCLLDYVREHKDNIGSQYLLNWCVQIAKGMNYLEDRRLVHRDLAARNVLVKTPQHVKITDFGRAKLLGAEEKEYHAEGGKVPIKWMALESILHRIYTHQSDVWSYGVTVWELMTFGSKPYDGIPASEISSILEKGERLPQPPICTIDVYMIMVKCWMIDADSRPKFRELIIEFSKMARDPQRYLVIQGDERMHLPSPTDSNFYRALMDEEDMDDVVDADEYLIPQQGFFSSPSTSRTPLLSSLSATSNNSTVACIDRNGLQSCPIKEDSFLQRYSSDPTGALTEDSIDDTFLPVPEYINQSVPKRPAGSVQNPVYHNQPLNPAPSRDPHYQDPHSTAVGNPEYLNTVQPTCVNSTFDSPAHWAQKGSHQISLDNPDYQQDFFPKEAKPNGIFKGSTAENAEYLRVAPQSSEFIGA
# [2] = Cytotoxicity against human HBE cells assessed as reduction in cell viability incubated for 72 hrs by MTT assay; format: toxicity, cell-based, Epithelial cell
# [3] = molecular target: Epidermal growth factor receptor (Homo sapiens, UniProt P00533); test: Inhibition of N-terminal GST-tagged human recombinant wild type EGFR (695 to end residues) expressed in baculovirus-infected Sf9 cells using poly (4:1 Glu,Tyr) peptide as substrate incubated for 60 mins in presence of ATP by ADP-Glo kinase assay
# Sequence of Epidermal growth factor receptor (Homo sapiens, UniProt P00533) (P00533 whole entry): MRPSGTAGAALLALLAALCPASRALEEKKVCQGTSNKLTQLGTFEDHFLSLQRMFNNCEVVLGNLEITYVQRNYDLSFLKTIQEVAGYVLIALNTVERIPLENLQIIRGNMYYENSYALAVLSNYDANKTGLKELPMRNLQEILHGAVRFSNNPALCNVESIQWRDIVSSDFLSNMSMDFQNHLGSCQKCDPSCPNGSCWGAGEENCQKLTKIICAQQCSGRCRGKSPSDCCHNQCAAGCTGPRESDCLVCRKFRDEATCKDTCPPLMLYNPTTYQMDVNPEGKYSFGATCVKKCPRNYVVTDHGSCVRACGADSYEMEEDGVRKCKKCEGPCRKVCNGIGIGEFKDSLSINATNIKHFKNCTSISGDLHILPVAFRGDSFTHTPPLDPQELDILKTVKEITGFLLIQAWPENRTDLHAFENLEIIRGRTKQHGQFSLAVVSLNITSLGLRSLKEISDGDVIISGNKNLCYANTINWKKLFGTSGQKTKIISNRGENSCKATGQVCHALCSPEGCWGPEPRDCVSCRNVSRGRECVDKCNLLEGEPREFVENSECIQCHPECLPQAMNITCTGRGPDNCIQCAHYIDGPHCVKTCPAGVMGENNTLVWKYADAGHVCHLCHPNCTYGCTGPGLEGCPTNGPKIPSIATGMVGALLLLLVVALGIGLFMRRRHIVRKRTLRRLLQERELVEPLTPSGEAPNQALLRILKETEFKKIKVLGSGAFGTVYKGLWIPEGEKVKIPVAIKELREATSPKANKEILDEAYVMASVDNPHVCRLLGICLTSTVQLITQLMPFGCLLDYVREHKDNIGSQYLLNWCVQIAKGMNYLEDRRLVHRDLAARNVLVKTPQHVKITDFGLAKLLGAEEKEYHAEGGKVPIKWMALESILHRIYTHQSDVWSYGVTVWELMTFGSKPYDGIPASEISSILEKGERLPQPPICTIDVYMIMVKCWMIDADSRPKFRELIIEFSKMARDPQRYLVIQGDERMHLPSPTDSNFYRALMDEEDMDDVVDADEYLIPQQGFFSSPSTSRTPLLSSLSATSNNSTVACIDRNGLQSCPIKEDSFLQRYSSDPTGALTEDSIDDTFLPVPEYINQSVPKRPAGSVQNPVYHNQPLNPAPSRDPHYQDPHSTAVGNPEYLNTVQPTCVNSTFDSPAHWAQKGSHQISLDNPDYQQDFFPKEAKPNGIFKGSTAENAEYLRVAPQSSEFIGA
# NCI-H1975 [4] = test: Antiproliferative activity against human NCI-H1975 cells harboring EGFR T790M/L858R mutant assessed as reduction in cell growth incubated for 72 hrs by MTT assay; format: functional, cell-based; details: NCI-H1975, 72 h
# NCI-H358 = test: Antiproliferative activity against human NCI-H358 cells harboring KRAS G12C mutant assessed as reduction in cell growth incubated for 72 hrs by MTT assay; format: functional, cell-based; details: NCI-H358, 72 h
# [5] = Cytotoxicity against human L02 cells assessed as reduction in cell viability incubated for 72 hrs by MTT assay; format: toxicity, cell-based
# Homo sapiens = species: Homo sapiens; test: Selectivity index, ratio of IC50 for N-terminal GST-tagged human recombinant wild type EGFR (695 to end residues) expressed in baculovirus-infected Sf9 cells to IC50 for N-terminal GST-tagged human recombinant EGFR T790M/L858R mutant (695 to end residues) expressed in baculovirus-infected Sf9 cells; format: functional
# SW-620 = test: Antiproliferative activity against human SW620 cells harboring KRAS G12V mutant assessed as reduction in cell growth incubated for 72 hrs by MTT assay; format: functional, cell-based; details: SW-620, 72 h
# [6] = Cytotoxicity against human A-431 cells harboring wild type EGFR assessed as reduction in cell viability incubated for 72 hrs by MTT assay; format: toxicity, cell-based
# NCI-H1975 [7] = test: Inhibition of cell migration in human NCI-H1975 cells at 0.05 to 0.5 uM by scratch wound healing assay; format: functional, cell-based; details: dose 0.05-0.5 µM, time 24-48 hrs, TDE = time-dependent effect
# NCI-H1975 [8] = test: Induction of apoptosis in human NCI-H1975 cells assessed as increase in number of nonviable apoptotic cells at 5 to 10 uM incubated for 48 hrs by AO/EB staining based fluorescence microscopic analysis; format: functional, cell-based; details: dose 5-10 µM
# NCI-H1975 [9] = test: Induction of apoptosis in human NCI-H1975 cells assessed as nuclear fragmentation by measuring breakdown of nucleus into small membrane blebs with compacted DNA at 1 to 10 uM incubated for 48 hrs by DAPI staining based fluorescence microscopic analysis; format: functional, cell-based; details: dose 1-10 µM
# NCI-H1975 [10] = test: Inhibition of cell migration in human NCI-H1975 cells incubated for 24 to 48 hrs by scratch wound healing assay; format: functional, cell-based; details: dose 0.05-0.5 µM, time 24-48 hrs, DDE = dose-dependent effect
# [11] = Selectivity index, ratio of IC50 for cytotoxicity against human L02 cells to IC50 for cytotoxicity against human NCI-H1975 cells harboring EGFR T790M/L858R mutant; format: toxicity, cell-based; details: read-out: Ratio IC50
# NCI-H1975 [12] = test: Induction of apoptosis in human NCI-H1975 cells assessed as chromatin shrinkage and accumulation in the nucleus at 1 to 10 uM incubated for 48 hrs by DAPI staining based fluorescence microscopic analysis; format: functional, cell-based; details: dose 1-10 µM
# [13] = Selectivity index, ratio of IC50 for cytotoxicity against human HBE cells to IC50 for cytotoxicity against human NCI-H1975 cells harboring EGFR T790M/L858R mutant; format: toxicity, cell-based; details: read-out: Ratio IC50
# NCI-H1975 [14] = test: Induction of morphological changes in human NCI-H1975 cells incubated for 48 hrs by AO/EB staining based fluorescence microscopic analysis; format: functional, cell-based; details: dose 1-10 µM, DDE = dose-dependent effect
# NCI-H1975 [15] = test: Induction of apoptosis in human NCI-H1975 cells assessed as increase in died cells with few cells containing intact DNA at 10 uM incubated for 48 hrs by DAPI staining based fluorescence microscopic analysis; format: functional, cell-based
Compound,IC50 (ASPC1) [µM],IC50 [1] [µM],IC50 at 72 h [2] [µM],IC50 [3] [µM],IC50 (NCI-H1975 [4]) [µM],IC50 (NCI-H358) [µM],IC50 at 72 h [5] [µM],Ratio IC50 (Homo sapiens),IC50 (SW-620) [µM],IC50 at 72 h [6] [µM],inhibition (NCI-H1975 [7]),Activity (NCI-H1975 [8]),Activity (NCI-H1975 [9]),inhibition (NCI-H1975 [10]),selectivity ratio [11],Activity (NCI-H1975 [12]),selectivity ratio [13],Activity (NCI-H1975 [14]),Activity (NCI-H1975 [15])
C=CC(=O)N1CCC(Oc2nc(Nc3ccc(N4CCOCC4)cc3OC)nc3ccsc23)CC1,0.51,0.00966,> 20,0.246,5.87,> 20,18.2,25.5,8.67,15.2,,,,,,,,,
C=CC(=O)N1CCC(Oc2nc(Nc3ccc(N4CCN(C)CC4)c(F)c3)ncc2Cl)CC1,3.88,,8.91,,2.09,1.51,5.38,,1.64,3.26,,,,,,,,,
C=CC(=O)N1CCC(Oc2nc(Nc3ccc(N4CCN(C)CC4)cc3)nc3[nH]ccc23)CC1,1.21,0.00568,7.94,0.0361,1.72,4.22,6.25,6.35,2.47,1.65,,,,,,,,,
C=CC(=O)N1CCC(Oc2nc(Nc3ccc(N4CCN(C(C)=O)CC4)cc3OC)nc3ccsc23)CC1,0.48,0.0202,18.9,0.0607,3.74,14.6,10.6,3,8.61,3.92,,,,,,,,,
C=CC(=O)N1CCC(Oc2nc(Nc3ccn(C)n3)nc3ccsc23)CC1,< 0.2,0.126,> 20,0.224,16.7,20,16.7,1.78,> 20,> 20,,,,,,,,,
C=CC(=O)N1CCC(Oc2nc(Nc3ccc(CN4CCC(CO)CC4)cc3)ncc2Cl)CC1,2.18,0.0123,5.86,0.18,1.07,16,2.12,14.6,1.99,1.84,,,,,,,,,
C=CC(=O)N1CCC(Oc2nc(Nc3ccc(N4CCN(CCO)CC4)cc3)ncc2Cl)CC1,2.74,0.0421,16.1,0.124,1.53,4.66,4.47,2.94,0.3,2.01,,,,,,,,,
C=CC(=O)N1CCC(Oc2nc(Nc3ccc(N4CCN(C)CC4)cc3OC)nc3ccsc23)CC1,0.65,0.0142,18.6,0.247,1.67,7.4,1.97,17.4,7.33,2.07,,,,,,,,,
C=CC(=O)N1CCC(Oc2nc(Nc3ccc(N4CCN(C)CC4)c(F)c3)nc3[nH]ccc23)CC1,0.4,0.0134,3.02,0.119,0.89,3.62,1.89,8.87,1.6,1.29,,,,,,,,,
C=CC(=O)N1CCC(Oc2nc(Nc3ccc(N4CCN(C)CC4)cc3)ncc2Cl)CC1,5.84,,15,,1.7,3.96,8.77,,4.63,1.45,,,,,,,,,
C=CC(=O)N1CCC(Oc2nc(Nc3ccc(N4CCN(C(C)=O)CC4)cc3OC)nc3[nH]ccc23)CC1,4.92,0.0313,12.9,0.133,3.78,3.56,16.1,4.23,5.8,3.51,,,,,,,,,
C=CC(=O)N1CCC(Oc2nc(Nc3ccc(N4CCN(C)CC4)cc3OC)nc3[nH]ccc23)CC1,7.04,0.0123,> 20,0.0368,4.36,9.86,18,2.99,9.88,2.71,,,,,,,,,
C=CC(=O)N1CCC(Oc2nc(Nc3ccc(N(C)CCN(C)C)cc3OC)nc3[nH]ccc23)CC1,5.13,0.0077,> 20,0.0593,4.14,5.62,19,7.7,7.84,16.7,,,,,,,,,
C=CC(=O)N1CCC(Oc2nc(Nc3cnn(C)c3)nc3[nH]ccc23)CC1,1.15,0.204,> 20,0.387,0.93,3.07,10.2,1.9,2.36,3.99,,,,,,,,,
C=CC(=O)N1CCC(Oc2nc(Nc3ccc(N4CCOCC4)cc3)nc3ccsc23)CC1,2.77,0.00653,16.7,0.197,5.8,16.5,16.2,30.2,4.82,3.89,,,,,,,,,
CCC(=O)N1CCC(Oc2nc(Nc3ccc(N4CCN(C)CC4)cc3)nc3ccsc23)CC1,,0.356,,0.268,26.1,,,,,,,,,,,,,,
C=CC(=O)N1CCC(Oc2nc(Nc3ccc(N4CCN(C)CC4)cc3)nc3ccsc23)CC1,5.31,0.0049,9.05,0.359,0.62,18.9,8.45,73.3,7.45,4.18,Tde,Active,Active,Dde,13,Active,13,Dde,Active
C=CC(=O)N1CCC(Oc2nc(Nc3cnn(C)c3)nc3ccsc23)CC1,0.71,0.135,> 20,0.196,2.31,17.6,8.92,1.45,6.2,4.77,,,,,,,,,
C=CC(=O)N1CCC(Oc2nc(Nc3ccc(N4CCN(C)CC4)c(F)c3)nc3ccsc23)CC1,> 20,,4.05,,1.89,6.26,1.4,,3.57,1.38,,,,,,,,,
C=CC(=O)Nc1cc(Nc2nccc(-c3cn(C)c4ccccc34)n2)c(OC)cc1N(C)CCN(C)C [OSIMERTINIB],,,,,,,,,,1.32,,,,,,,,,
